Measured values published in the supplement of paper PMC4862054.

Legend:
HCC1143 [1] = assay: drug sensitivity score (DSS), CellTiter-Glo (DSS (AUC-based score)); higher = stronger drug effect (viability inhibition or cytotoxicity); extreme values may be limits of the assay; conditions: incubation time: 72 h
Summary of the method: (§1)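 Breast cancer cells were seeded into 384-well plates containing compound at 5 concentrations in 10-fold steps over a compound-specific 10,000-fold range and incubated 72 h. After CellTox Green and CellTiter-Glo readings, each plate was normalised to 0.1 % DMSO and a positive kill control. The drug sensitivity score rests on the area under the fitted dose-response curve.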

BT-549 [2] = assay: as above; conditions: incubation time: 72 h
Summary of the method: as §1

CAL-85-1 [3] = assay: as above; conditions: incubation time: 72 h
Summary of the method: as §1

MDA-MB-436 [4] = assay: as above; conditions: incubation time: 72 h
Summary of the method: as §1

HDQ-P1 [5] = assay: as above; conditions: incubation time: 72 h
Summary of the method: as §1

DU-4475 [6] = assay: as above; conditions: incubation time: 72 h
Summary of the method: as §1

Hs578T [7] = assay: as above; conditions: incubation time: 72 h
Summary of the method: as §1

HCC1599 [8] = assay: as above; conditions: incubation time: 72 h
Summary of the method: as §1

MCF-10A = assay: as above; conditions: incubation time: 72 h
Summary of the method: as §1

HCC1143 [9] = assay: normalised viability (% of control), CellTiter-Blue; higher = more viable cells (about 100 = DMSO control); conditions: 100 nM; incubation time: 72 h
Protocol: (§2)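 DSRT, CellTiter-Blue viability, 72 h incubation. Signal is normalised to DMSO and benzethonium chloride controls. Value is the normalised response at dose 3.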

CAL-148 = assay: as above; conditions: 10 nM; incubation time: 72 h
Protocol: as §2

BT-549 [10] = assay: as above; conditions: 100 nM; incubation time: 72 h
Protocol: as §2

CAL-85-1 [11] = assay: as above; conditions: 10 nM; incubation time: 72 h
Protocol: as §2

MDA-MB-436 [12] = assay: as above; conditions: 100 nM; incubation time: 72 h
Protocol: as §2

CAL-120 = assay: as above; conditions: 100 nM; incubation time: 72 h
Protocol: as §2

BT-474 = assay: as above; conditions: 100 nM; incubation time: 72 h
Protocol: as §2

HDQ-P1 [13] = assay: as above; conditions: 10 nM; incubation time: 72 h
Protocol: as §2

DU-4475 [14] = assay: as above; conditions: 10 nM; incubation time: 72 h
Protocol: as §2

Hs578T [15] = assay: as above; conditions: 100 nM; incubation time: 72 h
Protocol: as §2

MFM-223 = assay: as above; conditions: 100 nM; incubation time: 72 h
Protocol: as §2

MDA-MB-453 = assay: as above; conditions: 10 nM; incubation time: 72 h
Protocol: as §2

HCC1599 [16] = assay: as above; conditions: 100 nM; incubation time: 72 h
Protocol: as §2

MDA-MB-231 = assay: as above; conditions: 100 nM; incubation time: 72 h
Protocol: as §2

HCC1937 = assay: as above; conditions: 100 nM; incubation time: 72 h
Protocol: as §2

SK-BR-3 = assay: as above; conditions: 100 nM; incubation time: 72 h
Protocol: as §2

MDA-MB-468 = assay: as above; conditions: 100 nM; incubation time: 72 h
Protocol: as §2

CAL-51 = assay: as above; conditions: 10 nM; incubation time: 72 h
Protocol: as §2

Structure (SMILES)	drug sensitivity score (HCC1143 [1])	drug sensitivity score (BT-549 [2])	drug sensitivity score (CAL-85-1 [3])	drug sensitivity score (MDA-MB-436 [4])	drug sensitivity score (HDQ-P1 [5])	drug sensitivity score (DU-4475 [6])	drug sensitivity score (Hs578T [7])	drug sensitivity score (HCC1599 [8])	drug sensitivity score (MCF-10A)	normalised viability (HCC1143 [9])	normalised viability (CAL-148)	normalised viability (BT-549 [10])	normalised viability (CAL-85-1 [11])	normalised viability (MDA-MB-436 [12])	normalised viability (CAL-120)	normalised viability (BT-474)	normalised viability (HDQ-P1 [13])	normalised viability (DU-4475 [14])	normalised viability (Hs578T [15])	normalised viability (MFM-223)	normalised viability (MDA-MB-453)	normalised viability (HCC1599 [16])	normalised viability (MDA-MB-231)	normalised viability (HCC1937)	normalised viability (SK-BR-3)	normalised viability (MDA-MB-468)	normalised viability (CAL-51)
Cc1sc2c(c1C)C(c1ccc(Cl)cc1)=N[C@@H](CC(=O)OC(C)(C)C)c1nnc(C)n1-2 [(+)JQ1]	5.11	13.3	12.7	2.63	6.56	9.61	12.8	0	9.62	92.2%	94.7%	80.9%	101%	136%	79.1%	110%	98.4%	88.3%	72.6%	85.1%	108%	100%	95.9%	98.4%	98.3%	108%	98.5%
Oc1ncnc2[nH]ncc12 [Allopurinol]	0	0	0	0	0	0	0	0	0	113%	108%	87.3%	102%	108%	107%	106%	106%	104%	94%	91.2%	110%	98.5%	109%	94.5%	103%	105%	90%
O=C1CN2Cc3c(ccc(Cl)c3Cl)N=C2N1 [Anagrelide]	0	0	0	0	0	0	1.32	0	0	84.8%	97%	92.5%	91.6%	94.2%	85.6%	122%	114%	98.6%	88%	93%	109%	104%	99.2%	94.9%	60.9%	95.2%	98.7%
Nc1ncn([C@@H]2O[C@H](CO)[C@@H](O)[C@H]2O)c(=O)n1 [Azacitidine]	0	5.75	0	4.78	2.36	0	0	1.27	0	91.5%	82.7%	106%	95.2%	89.3%	90.9%	107%	108%	118%	91.7%	94.7%	101%	97%	84.5%	98.3%	89.3%	103%	108%
O=NN(CCCl)C(=O)NCCCl [Carmustine]	0	0	0	0	0	0	0	0	0	91.8%	91.5%	111%	95%	119%	91.3%	111%	105%	108%	96.3%	83.8%	109%	114%	90.8%	87.8%	102%	123%	105%
CC1=C2C[C@H]3[C@@H](CC=C4C[C@@H](O)CC[C@@]43C)[C@@H]2CC[C@]12O[C@@H]1C[C@H](C)CN[C@H]1[C@H]2C [Cyclopamine]	0	0	0	0	0	0	0	0	0	116%	113%	111%	109%	96.3%	88.2%	124%	120%	107%	84.1%	103%	123%	113%	84.9%	100%	90.8%	94.4%	114%
